Tests used:
[1] = system: Hepatocytes; assay: Hepatocytes predicted clearance, rat
[2] = target: T1, TRPV5 channels (Homo sapiens, UniProt Q9NQA5); assay: TRP Family FLIPR Assay, TRPV5; assay type: cell-based; conditions: antagonist mode; activated with 60 μM cadmium ion; HEK293 cells (transient); 0.003-10 μM; read-out: IC50 hTRPV5
T1 construct: expressed in transfected cells; host or cells: HEK293 (transient)
Method: (§1) The compound of Example 5 was tested for selectivity against a panel of Human TRP family ion channels in a TRP Family FLIPR Assay as described below. • 1. TRPC3 channels (human TRPC3 variant 1 gene, expressed in HEK293 cells). • 2. TRPC4 channels (human TRPC4 gene, expressed in HEK293 cells). • 3. TRPC5 channels (human TRPC5 gene, expressed in HEK293 cells). • 4. TRPC6 channels (human TRPC6 gene, expressed in HEK293 cells). • 5. TRPM2 channels (human TRPM2 gene, transiently expressed in HEK293 cells). • 6. TRPM3 channels (human TRPM3 gene, transiently expressed in HEK293 cells). • 7. TRPM4 channels (human TRPM4 gene, expressed in CHO cells). • 8. […]
(§2) Data acquisition was performed via the FLIPR Control software supplied with the FLIPR System (MDS-AT) and data was analyzed using Microsoft Excel (Microsoft Corp., Redmond, WA) or GraphPad Prism. […]
(§3) [formula] where Base is the response at low concentrations of test article, Max is the maximum response at high concentrations, xhalf the EC50, or IC50, the concentration of test article producing either half-maximal activation or inhibition, and rate is the Hill coefficient. […] No assumptions about the fit parameters was made; the fit parameters were determined by the algorithm.
(§4) The effect of each test article was evaluated at eight (8) concentrations: 0.003, 0.01, 0.03, 0.1, 0.3, 1, 3 and 10 μM, n≤4 wells/concentration). […]

[3] = target: T2, TRPC3 channels (Homo sapiens, UniProt Q13507); assay: TRP Family FLIPR Assay, TRPC3; assay type: cell-based; conditions: HEK293 cells
T2 construct: expressed in transfected cells; host or cells: HEK293
T2 sequence (Q13507 1-921): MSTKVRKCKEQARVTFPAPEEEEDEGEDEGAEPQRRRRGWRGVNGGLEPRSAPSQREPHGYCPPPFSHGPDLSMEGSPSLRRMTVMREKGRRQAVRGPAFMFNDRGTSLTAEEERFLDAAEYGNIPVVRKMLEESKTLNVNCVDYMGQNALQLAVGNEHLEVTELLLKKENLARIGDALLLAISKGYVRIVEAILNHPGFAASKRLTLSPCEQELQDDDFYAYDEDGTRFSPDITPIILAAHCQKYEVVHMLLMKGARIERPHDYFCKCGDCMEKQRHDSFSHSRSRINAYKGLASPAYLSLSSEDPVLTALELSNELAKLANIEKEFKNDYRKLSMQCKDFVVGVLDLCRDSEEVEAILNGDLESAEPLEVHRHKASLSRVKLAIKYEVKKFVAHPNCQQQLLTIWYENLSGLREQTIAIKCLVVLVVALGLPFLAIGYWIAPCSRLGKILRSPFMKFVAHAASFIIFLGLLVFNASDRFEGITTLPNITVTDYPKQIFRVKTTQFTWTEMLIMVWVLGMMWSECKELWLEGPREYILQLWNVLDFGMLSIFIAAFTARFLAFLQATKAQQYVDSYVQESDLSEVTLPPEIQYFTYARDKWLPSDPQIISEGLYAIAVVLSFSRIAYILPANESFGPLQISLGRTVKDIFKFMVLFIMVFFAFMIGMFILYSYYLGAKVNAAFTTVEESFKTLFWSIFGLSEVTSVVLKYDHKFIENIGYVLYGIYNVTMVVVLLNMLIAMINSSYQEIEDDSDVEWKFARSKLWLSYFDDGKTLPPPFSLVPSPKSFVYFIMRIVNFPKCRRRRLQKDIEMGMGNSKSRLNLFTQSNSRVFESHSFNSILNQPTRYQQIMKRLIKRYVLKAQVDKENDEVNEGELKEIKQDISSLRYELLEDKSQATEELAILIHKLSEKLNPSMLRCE
Method: as §1, §2, §3, §4

[4] = target: T3, TRPV1 channels (Homo sapiens, UniProt Q8NER1); assay: TRP Family FLIPR Assay, TRPV1; assay type: cell-based; conditions: HEK293 cells
T3 construct: expressed in transfected cells; host or cells: HEK293
T3 sequence (Q8NER1 whole entry): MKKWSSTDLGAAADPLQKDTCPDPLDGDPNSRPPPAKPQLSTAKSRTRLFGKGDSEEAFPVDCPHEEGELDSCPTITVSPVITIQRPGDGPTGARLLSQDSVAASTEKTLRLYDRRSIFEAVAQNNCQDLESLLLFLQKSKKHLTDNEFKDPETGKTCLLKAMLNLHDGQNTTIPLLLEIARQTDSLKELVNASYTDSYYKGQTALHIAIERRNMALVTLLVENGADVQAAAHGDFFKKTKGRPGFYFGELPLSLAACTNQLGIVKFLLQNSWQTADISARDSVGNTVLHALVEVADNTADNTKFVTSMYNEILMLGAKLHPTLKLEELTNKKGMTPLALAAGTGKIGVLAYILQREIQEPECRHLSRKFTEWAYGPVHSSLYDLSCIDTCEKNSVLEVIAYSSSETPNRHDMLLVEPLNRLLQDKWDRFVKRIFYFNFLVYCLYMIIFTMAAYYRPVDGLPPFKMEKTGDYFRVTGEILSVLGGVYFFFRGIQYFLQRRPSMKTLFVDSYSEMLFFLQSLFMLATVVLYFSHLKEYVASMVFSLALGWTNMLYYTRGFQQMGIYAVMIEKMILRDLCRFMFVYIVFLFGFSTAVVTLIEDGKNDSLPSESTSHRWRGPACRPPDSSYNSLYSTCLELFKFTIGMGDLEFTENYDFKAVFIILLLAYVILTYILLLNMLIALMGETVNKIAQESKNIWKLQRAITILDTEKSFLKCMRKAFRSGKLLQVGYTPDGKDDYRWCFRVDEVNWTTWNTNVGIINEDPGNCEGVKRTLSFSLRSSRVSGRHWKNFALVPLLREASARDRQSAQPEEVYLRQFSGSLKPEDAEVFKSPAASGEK
Method: as §1, §2, §3, §4

[5] = system: Hepatocytes; assay: Hepatocytes predicted clearance, mouse

T1 sequence (Q9NQA5 whole entry): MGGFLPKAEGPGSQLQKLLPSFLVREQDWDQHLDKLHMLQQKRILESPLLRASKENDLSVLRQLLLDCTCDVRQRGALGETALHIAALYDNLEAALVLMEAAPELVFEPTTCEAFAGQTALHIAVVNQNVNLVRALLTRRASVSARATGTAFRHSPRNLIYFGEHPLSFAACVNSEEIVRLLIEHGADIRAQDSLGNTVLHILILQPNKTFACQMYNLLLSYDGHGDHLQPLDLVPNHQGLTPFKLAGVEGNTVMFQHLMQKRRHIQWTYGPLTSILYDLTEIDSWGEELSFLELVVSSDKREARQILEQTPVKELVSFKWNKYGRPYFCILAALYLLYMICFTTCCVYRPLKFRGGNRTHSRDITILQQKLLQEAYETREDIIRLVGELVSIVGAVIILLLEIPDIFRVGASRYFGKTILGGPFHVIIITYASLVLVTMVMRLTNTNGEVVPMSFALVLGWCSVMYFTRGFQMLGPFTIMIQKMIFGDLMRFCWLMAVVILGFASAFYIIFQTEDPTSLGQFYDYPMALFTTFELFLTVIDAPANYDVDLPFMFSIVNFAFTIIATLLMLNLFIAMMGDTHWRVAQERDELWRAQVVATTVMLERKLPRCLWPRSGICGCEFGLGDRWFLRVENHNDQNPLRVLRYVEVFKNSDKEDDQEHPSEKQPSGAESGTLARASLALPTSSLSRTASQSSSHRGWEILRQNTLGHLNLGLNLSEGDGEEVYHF

In the case of `CC(C)(O)c1cnc(N2C[C@@]3(CC[C@@H](F)[C@](C)(Cn4cnc5ccc(C#N)cc54)C3)OC2=O)cn1` (single isomer, unassigned) [Example 5], the “Hepatocytes predicted clearance in rat” value [1] is reported as 7.67 mL/min/kg, the IC50 [2] is reported as > 10 µM and the EC50 ([3]; agonist mode, vs EMAX of GSK1702934A 30 μM, read-out: EC50 hTRPC3) is reported as > 10 µM. The IC50 ([3]; antagonist mode, activated with 15 μM GSK1702934A, 0.003-10 μM, read-out: IC50 hTRPC3) was > 10 µM, the EC50 ([4]; agonist mode, vs EMAX of capsaicin 1 μM, read-out: EC50 hTRPV1) was > 10 µM and the IC50 ([4]; antagonist mode, activated with capsaicin 0.1 μM, 0.003-10 μM, read-out: IC50 hTRPV1) was > 10 µM. For the same molecule, the “Hepatocytes predicted clearance in mouse” value [5] was 12.8 mL/min/kg.

— patent US12391683B2, “Therapeutic compounds and methods” (Actio Biosciences, Inc., priority 2022, dated 2025)
